“And” between values parts separate entries of the source, which are not always exact repeats. Equal entries are not always repeated. Marks after values point to notes of the source that are not given here.
How the values were obtained:
α1-adrenoceptors = test: Radioligand binding assay, displacement of [3H]Prazosin, rat cerebral cortex; details: for Ki: rat cerebral cortex, [3H]Prazosin 0.2 nM, ± SEM
Method: (§1) The experiment was carried out on rat cerebral cortex. […] The brains were homogenised in 20 vol of an ice-cold 50 mM Tris–HCl buffer (pH 7.6), and were centrifuged at 20.000 × g for 20 min (0–4 °C). The cell pellet was resuspended in the Tris–HCl buffer and centrifuged again. Radioligand binding assays were performed in plates (MultiScreen/Millipore). The final incubation mixture (final volume 300 μL) consisted of 240 μL of the membrane suspension, 30 μL of [^3H]Prazosin (0.2 nM), [^3H]Clonidine (2 nM) or [^3H]CGP12177 (0.2 nM) solution, and 30 μL of the buffer containing seven to eight concentrations (10^–11–10^–4 M) of the tested compounds. […] The incubation was terminated by rapid filtration over glass fibre filters (Whatman GF/C) using a vacuum manifold (Millipore). The filters were then washed twice with the assay buffer and placed in scintillation vials with a liquid scintillation cocktail. Radioactivity was measured in a WALLAC 1409 DSA liquid scintillation counter. All the assays were made in duplicate. The radioligand binding data were analyzed using an iterative curve-fitting routine (GraphPAD/Prism, Version 3.0, San Diego, CA, USA). Ki values were calculated from the Cheng and Prusoff equation [25].

α2-adrenoceptors = test: Radioligand binding assay, displacement of [3H]Clonidine, rat cerebral cortex; details: [3H]Clonidine 2 nM, ± SEM
Method: as §1

[1] = test system: anesthetized male Wistar rats; test: Effect on normal electrocardiogram (ECG) in vivo in rats; set-up: species or system rat; details: 1 mg∙kg^-1 iv, mean ± SEM
Method: The effects on ECG intervals and heart rate were determined for all tested compounds at the same dose of 1 mg∙kg^-1.
Electrocardiographic measurement was carried out using the Ascard B5 Eco apparatus, standard lead II, and paper speed of 50 mm∙s^-1. The tested compounds were administered intravenously in a dose of 1 mg∙kg^-1. The ECG recording was carried out immediately before and 1, 5 and 15 min after administration of the tested compounds. The effect of the compounds on rat ECG recording was calculated according to Cambridge et al..

[2] = test system: adrenaline-induced arrhythmia; test: Prophylactic antiarrhythmic activity, adrenaline-induced arrhythmia in anesthetized rats; format: in vivo, rat; details: limits in brackets; for ED50 iv (dose producing 50% inhibition of premature ventricular beats): iv 15 min before adrenaline 20 μg∙kg^-1 iv; for ED50 po (dose producing 50% inhibition of premature ventricular beats): orally (intragastric) 60 min before adrenaline 20 μg∙kg^-1 iv
Method: The prophylactic antiarrhythmic activity of compounds 10 and 11 was determined using an adrenaline-induced arrhythmia model of in anesthetized rats.
Arrhythmia was evoked in thiopental (60 mg kg^-1, ip) – anaesthetized rats by iv injection of adrenaline (20 μg kg^-1). The tested compounds were administered intravenously 15 min or orally 60 min before adrenaline. […] The cardiac rhythm disturbances were recorded for 15 min after adrenaline injection. ECGs were analyzed according to the guidelines of the Lambeth Convention on ventricular premature beats (VBs), bigeminy, salvos (less than four successive VBs), ventricular tachycardia (VT, four or more successive VBs), and ventricular fibrillation (VF).

[3] = test system: normotensive anesthetized rats; test: Influence on blood pressure in normotensive anesthetized rats; format: in vivo, rat
Method: Hypotensive activity of compounds 10 and 11 was determined after iv and po administration to normotensive anesthetized rats.
Male Wistar normotensive rats were anesthetized with thiopental (50–75 mg kg^-1, ip). The right carotid artery was cannulated with a polyethylene tube, filled with heparin in saline to facilitate pressure measurement using the Datamax apparatus (Columbus Instruments). […]

[4] = test system: isolated rabbit small intestine; test: Influence on spontaneous contractions of isolated rabbit ileum; details: for Amplitude of contractions / Frequency of contractions: mean ± SEM
Method: The influence on isolated rabbit ileum of the investigated compounds on the smooth muscle was investigated on the rabbit small intestine, according to the Magnus’ method modified and described by Orisadipe et al. The white rabbits were sacrificed by cervical dislocation and the small intestine was immediately removed, and cut into strips about 3–4 cm long. The isolated strips were incubated in Krebs solution at 37 °C and aerated with carbogen in special laboratory dishes. The isolated strip of the intestine was placed in a test glass tube with the Krebs solution constantly aerated by carbogen. After 1 hour incubation period, during which the physiological saline solution was changed every 15 min, the influence of the investigated compounds on spontaneous contractions of the rabbit ileum was evaluated. The contraction of the intestine was recorded on a TZ-4100 line recorder via isometric Harvard transducer, at the muscle load of 1 g. The influence of every single dose was recorded for 5 min.

[5] = time 0 min (immediately before administration, baseline)
[6] = po, 2 mg∙kg^-1, from 40 to 90 min
[7] = concentration 0 (control before 10^-5 M)
[8] = concentration 0 (control before 10^-6 M)
[9] = concentration 0 (control before 10^-7 M)
[10] = concentration 0 (control before 10^-8 M)
[11] = concentration 0 (control before 10^-9 M)

## COc1ccccc1OCCNCC(O)COc1cccc2[nH]ccc12 (racemic) [(R,S)-9, (2R,S)-1-(1H-indol-4-yloxy)-3-(2-(2-methoxyphenoxy)ethylamino)propan-2-ol, reference compound]
α1-adrenoceptors
  Ki: […]
α2-adrenoceptors
  Ki: 1400 ± 400 nM
[1]; 1 min after administration
  P–Q: […]
  QRS: […]
  Q–T: […]
  heart rate: […]
[1]; 5 min after administration
  QRS: […]
  Q–T: […]
  heart rate: […]
[1]; 15 min after administration
  P–Q: […]
  QRS: […]
  Q–T: […]
  heart rate: […]
[1]; [5]
  P–Q: […]
  QRS: […]
  Q–T: […]
  heart rate: […]
[2]
  ED50 iv (dose producing 50% inhibition of premature ventricular beats): […]
  ED50 po (dose producing 50% inhibition of premature ventricular beats): […]

## COc1ccccc1OCCNCC(O)COc1cccc2[nH]c3ccccc3c12 (stereo not shown) [Carvedilol, reference compound]
[1]; [5]
  heart rate: 356.7 ± 21.0 Beats/min

## COCc1cc2[nH]ccc2c(OC)c1OCC(O)CNCCOc1ccccc1OC [Compound 10, (2R,S)-1-(4-Methoxy-6-(methoxymethyl)-1H-indol-5-yloxy)-3-(2-(2-methoxyphenoxy)ethylamino)propan-2-ol]
α1-adrenoceptors; from Ki values of Table 1
  selectivity towards α1-adrenergic receptors: 52 fold
α1-adrenoceptors
  Ki: 5.9 ± 0.3 nM
α2-adrenoceptors
  Ki: 307 ± 11.7 nM
[1]; 1 min after administration
  P–Q: 45.6 ± 1.6^b ms
  QRS: 31.2 ± 0.5^c ms
  Q–T: 92.0 ± 4.2 ms
  heart rate: 334.0 ± 13.0 Beats/min
[1]; 5 min after administration
  P–Q: 46.8 ± 1.6^c ms
  QRS: 31.2 ± 1.0^c ms
  Q–T: 100.0 ± 2.8 ms
  heart rate: 309.6 ± 13.7 Beats/min
[1]; 15 min after administration
  P–Q: 46.4 ± 1.6^c ms
  QRS: 32.4 ± 0.8^d ms
  Q–T: 104.0 ± 1.4^a ms
  heart rate: 297.4 ± 12.4 Beats/min
[1]; [5]
  P–Q: 40.4 ± 0.4 ms
  QRS: 27.6 ± 0.8 ms
  Q–T: 94.4 ± 2.8 ms
  heart rate: 329.4 ± 12.2 Beats/min
[2]
  ED50 iv (dose producing 50% inhibition of premature ventricular beats): 0.35 (0.18–0.72) mg∙kg^-1
  ED50 po (dose producing 50% inhibition of premature ventricular beats): 1.71 mg∙kg^-1 and 1.71 (1.52 ± 1.93) mg∙kg^-1
[3]; iv, 0.25 mg·kg^-1
  time after administration in which diastolic blood pressure was decreased: 10 min
  time after administration in which systolic blood pressure was decreased: 20 min
[3]; iv, 0.5 mg∙kg^-1
  time over which diastolic blood pressure was significantly decreased: ≤ 10 min
[3]; iv, 0.5 mg∙kg^-1, throughout the whole observation period
  decrease of systolic blood pressure: 8–14%
[3]; po, 1 mg∙kg^-1
  hypotensive activity: disappeared
[3]; [6]
  decrease of diastolic blood pressure: 11–23%
  decrease of systolic blood pressure: 9–18%
[4]; 10^-5 M
  increased frequency of contractions: about 8%
  Amplitude of contractions: 1.11 ± 0.09^c g
  Frequency of contractions: 10.70 ± 0.25^a min ^-1
[4]; 10^-6 M
  Amplitude of contractions: 1.10 ± 0.07^c g
  Frequency of contractions: 11.60 ± 0.22 min ^-1
[4]; 10^-7 M
  Amplitude of contractions: 1.29 ± 0.05^a g
  Frequency of contractions: 12.15 ± 0.15 min ^-1
[4]; 10^-8 M
  Amplitude of contractions: 1.31 ± 0.06^b g
  Frequency of contractions: 12.15 ± 0.18 min ^-1
[4]; 10^-9 M
  Amplitude of contractions: 1.56 ± 0.06 g
  Frequency of contractions: 12.14 ± 0.22 min ^-1
[4]; [7]
  Amplitude of contractions: 1.72 ± 0.11 g
  Frequency of contractions: 11.61 ± 0.27 min ^-1
[4]; [8]
  Amplitude of contractions: 1.63 ± 0.10 g
  Frequency of contractions: 12.24 ± 0.25 min ^-1
[4]; [9]
  Amplitude of contractions: 1.55 ± 0.10 g
  Frequency of contractions: 12.05 ± 0.19 min ^-1
[4]; [10]
  Amplitude of contractions: 1.53 ± 0.06 g
  Frequency of contractions: 11.77 ± 0.14 min ^-1
[4]; [11]
  Amplitude of contractions: 1.43 ± 0.06 g
  Frequency of contractions: 12.74 ± 0.20 min ^-1
[4]; range of concentrations 10^-8–10^-5 M
  diminished amplitude of contractions: 14 to 35%

— paper PMC6264682, “Synthesis and Adrenolytic Activity of New Propanolamines” (Molecules, 2010)
